Measurements: patent publication US4661516A, “Diaminocyclohexane platinum complexes” (Research Corporation, priority 1984, dated 1987)
Values joined by “and” are separate entries in the source; they are usually repeats but may differ in a detail not shown here. Equal values may be shown once.

Columns and labels:
[1] = system: Wild type L1210 leukemic cells; test: In vitro cytotoxicity, wild type L1210 leukemic cells (L1210/0); type: cell-based; details: for ID50: L1210, 72 hours incubation
Protocol: Four ml of cell suspension (10^5 cells/ml) are added to culture tubes and the appropriate concentration (0.01, 0.1, 1 or 10 μg/ml final concentration) of drug added to the culture tubes. After 72 hours of incubation, the cell concentration of control and experimental cultures are determined with the aid of a Coulter Counter® Model ZBf and the percent inhibition calculated. […]

[2] = system: L1210 leukemia cells (L1210/PDD); test: In vitro cytotoxicity / cross-resistance, L1210/PDD (L1210/DDP) cells resistant to cisdiamminedichloroplatinum(II); type: cell-based; details: for ID50 L1210/DDP: Tables VII and VIII, 5760 min; for ID50 L1210/PDD: 96 hours
Protocol: Four ml of cell suspension were added to culture tubes and the appropriate concentration (0.01, 0.1, 1 or 10 μg/ml final drug concentration) was added. After 96 hours the cell concentration of control and experimental cultures were calculated with the aid of a Coulter Counter® Model ZBf and the percent inhibition calculated.

[3] = system: L1210 cells; test: In vivo anti-tumor activity, L1210, single i.p. injection; set-up: species or system BDF1 mice
Protocol: About 24 hours after inoculation of the cells, the mice were injected intraperitoneally with varying dosages of complexes of the present invention. […] Long term survival signifies that animals were alive 60 days after inoculation with L1210 cells.

[4] = system: Male albino mice; test: Acute toxicity, single intraperitoneal injection (Example 19); type: in vivo; details: single i.p.; for Calculated LD10 / Calculated LD50 / Calculated LD90: 14 days
Protocol: Fourteen days after treatment all surviving mice were sacrified and the LD10, LD50 and LD90 were calculated.

[5] = system: L1210/0 leukemia cells; test: In vivo anti-tumor activity, L1210 (L1210/0), multiple i.p. doses; set-up: species or system BDF1 mice; details: for Maximal Effective Dose: i.p. on days 1, 5 and 9
Protocol: BDF1 mice were inoculated intraperitoneally with 10^6 L1210 cells. About 24 hours after inoculation of the cells, the mice were injected intraperitoneally with varying dosages of complexes of the present invention. Six mice were used for each dosage level in each experiment with an equal number of control mice inoculated with 10^6 L1210 cells and left untreated with a given complex. The results [%T/C=(survival time of treated animals/survival time of control animals)×100] are set forth below. Long term survival signifies that animals were alive 60 days after inoculation with L1210 cells.
The procedure of Example 16 was repeated except that the treated animals were injected with multiple doses of the complex as indicated below:
The anti-tumor activity of compound number 3 was evaluated against cells sensitive to (L1210/0) and resistant to (L1210/PDD) the standard platinum complex cis-diamminedichloroplatinum(II).
The following complexes were tested in vivo oncolytic activity following 3 i.p. injections (days 1, 5, 9) according to the protocol described in Examples 16 and 17.
BDF1 mice were innoculated intraperitoreally with 10^6 L1210 leukemia cells and treatment was begun on the next day (day 1). Two treatment schedules, i.e. single i.p. injection of the drug and i.p. injections on days 1, 5 and 9 according to the protocol described in Examples 16 and 17 were used.

[6] = system: B16 cells; test: Melanotic melanoma test, i.p. inoculated B16 melanoma; type: in vivo, BDF1 mice; details: for Maximal Effective Dose: B16, i.p. days 1, 5 and 9; for % T/C / Long Term Survivors: B16, i.p. days 1, 5 and 9, at maximal effective dose; for Long Term Survivors: 60 days
Protocol: The animals used were BDF1 mice, all of the same sex, weighing a minimum of 18 g. and all within a 4 g. weight range. There were 6 animals per test group. […] The test compounds were administered intraperitoneally on days 1, 5 and 9 at various doses. The animals were weighed and survivors were recorded on a regular basis for 60 days. The median survival time and the ratio of survival time for treated (T)/control (C) animals were calculated. […] The criterion for efficacy is T/C×100≥125%.

[7] = L1210/0, protocol of Example 14, Tables VII and VIII, 4320 min
[8] = Tables X and XI, days 1, 5 and 9, at maximal effective dose, alive 60 days after tumor inoculation
[9] = Tables X and XI, i.p. on days 1, 5 and 9, at maximal effective dose

Compound | ID50 [1] | ID50 L1210/DDP [2] | % T/C ([3]; single i.p., 25 mg/kg) | % T/C ([3]; single i.p., 50 mg/kg) | ID50 L1210/PDD [2] | ID50 L1210/0 [1, 7] | Long Term Survivors [5, 8] | Maximal Effective Dose ([5]; Tables X and XI) | % T/C [5, 9] | Maximal Effective Dose [6] | % T/C [6] | Long Term Survivors [6] | further results
furanedicarboxylato(DACH)Pt(II) [Compound 19] | 1.0 µg/mL | 0.9 µg/mL | 136% | Toxic | – | – | – | – | – | – | – | – | % T/C ([3]; single i.p., 6.25 mg/kg): 143%; % T/C ([3]; single i.p., 12.5 mg/kg): 136%
NC1CCCCC1N.O=C([O-])C1CCCN1.O=C([O-])C1CCCN1.[Pt+2] [Compound 16, cis-bis-L-prolinato(DACH)Pt(II)] | 4.0 µg/mL | 2.5 µg/mL | 165% | 165% | – | – | – | – | – | – | – | – | % T/C ([3]; single i.p., 12.5 mg/kg): 144%; % T/C ([3]; single i.p., 100 mg/kg): 162%; animals died of apparent drug toxicity ([3]; single i.p., 100 mg/kg): 1 animals
NC1CCCCC1N.O=C1O[C@H]([C@@H](O)C(=O)[O-])[C@H](O)[C@H]1O.O=C1O[C@H]([C@@H](O)C(=O)[O-])[C@H](O)[C@H]1O.[Pt+2] [Compound 9, cis-bis-D-saccharato-1,4-lactone(DACH)Pt(II)] | 3.0 µg/mL | – | 138% | 156% | 0.6 µg/mL | – | – | – | – | – | – | – | % T/C ([3]; single i.p., 12.5 mg/kg): 127%; % T/C ([3]; single i.p., 100 mg/kg): Toxic; DEATHS/TREATED ([4]; 85 mg/kg): 0/6; DEATHS/TREATED ([4]; 100 mg/kg): 0/6; DEATHS/TREATED ([4]; 125 mg/kg): 3/6; DEATHS/TREATED ([4]; 158 mg/kg): 5/6; DEATHS/TREATED ([4]; 200 mg/kg): 4/6; Calculated LD10 [4]: 100 mg/kg; Calculated LD50 [4]: 140 mg/kg; Calculated LD90 [4]: 185 mg/kg
NC1CCCCC1N.O=C1OC(C(O)CO)C([O-])=C1O.O=C1OC(C(O)CO)C([O-])=C1O.[Pt+2] (mixture of isomers) [Compound 7, cis-bis-isoascorbato(DACH)Pt(II).3H2 O] | – | 3.8 µg/mL | 132% | 136% | – | – | – | – | – | – | – | – | ID50 ([1]; 4320 min): 4.1 µg/mL; % T/C ([3]; single i.p., 100 mg/kg): 196%; animals died of apparent drug toxicity ([3]; single i.p., 100 mg/kg): 2/6; Long Term Survivors ([3]; single i.p., 100 mg/kg, alive 60 days after inoculation): 1/6; % T/C ([5]; 12.5 mg/kg, days 1,5,9): 151%; % T/C ([5]; 25 mg/kg, days 1,5,9): 179%; % T/C ([5]; 50 mg/kg, days 1,5,9): 212%
NC1CCCCC1N.NCCOS(=O)(=O)[O-].NCCOS(=O)(=O)[O-].[Pt+2] (stereo not drawn) [Compound 14, cis-bis-2-aminoethylsulfato(DACH)Pt(II)] | 4.3 µg/mL | 3.7 µg/mL | – | – | – | – | – | – | – | – | – | – | –
N[C@@H]1CCCC[C@H]1N.O=C1O[C@H]([C@@H](O)CO)C([O-])=C1O.O=C1O[C@H]([C@@H](O)CO)C([O-])=C1O.[Pt+2] [Compound 4, cis-bis-ascorbato(trans-R,R--DACH)Pt(II).3H2 O] | 1.9 µg/mL | – | 128% | 184% | 0.4 µg/mL | – | – | – | – | – | – | – | Long Term Survivors (LTS) ([3]; single i.p., 50 mg/kg, alive 60 days after inoculation): 1/6; % T/C ([5]; 25 mg/kg, days 1,5,9): 218%; % T/C ([5]; 50 mg/kg, days 1,5,9): 144%
isocitratomonoethylester(DACH)Pt(II).1.5H2 O [Compound 21] | 2.0 µg/mL | 1.9 µg/mL | – | – | – | – | – | – | – | – | – | – | –
mono-N--phenyliminodiacetato [Identifier No. 14a] | – | 0.6 µg/mL | – | – | – | 0.7 µg/mL | 4/6 | 6.25 mg/kg | 578% | 25 mg/kg | 160% | 3/6 | –
CN(CC(=O)[O-])CC(=O)[O-].N[C@@H]1CCCC[C@H]1N.[Pt+2] [Identifier No. 11a, mono-N--methyliminodiacetato] | – | 1.9 µg/mL | – | – | – | 0.8 µg/mL | 6/6 | 6.25 mg/kg | 700% | 25 mg/kg | 210% | 2/6 | –
N[C@H]1CCCC[C@@H]1N.O=C1O[C@H]([C@@H](O)CO)C([O-])=C1O.O=C1O[C@H]([C@@H](O)CO)C([O-])=C1O.[Pt+2] [Compound 5, cis-bis-ascorbato(trans-S,S--DACH)Pt(II).2H2 O] | 4.4 µg/mL | – | 136% | Toxic | 2.3 µg/mL | – | – | – | – | – | – | – | DEATHS/TREATED ([4]; 60 mg/kg): 0/6; DEATHS/TREATED ([4]; 80 mg/kg): 2/6; DEATHS/TREATED ([4]; 100 mg/kg): 5/6; DEATHS/TREATED ([4]; 125 mg/kg): 6/6; DEATHS/TREATED ([4]; 160 mg/kg): 5/6; Calculated LD10 [4]: 70 mg/kg; Calculated LD50 [4]: 90 mg/kg; Calculated LD90 [4]: 125 mg/kg
N.N.[Cl][Pt][Cl] [DDP, diamminedichloroplatinum II, reference compound] | – | – | – | – | 5.5 µg/mL | – | 1/6 | 5 mg/kg | 210% and 220% | 5 mg/kg | 172% | 1/6 | ID50 L1210/0 ([1]; L1210/0, Example 15 table, 4320 min): 0.1 µg/mL; Maximal Effective Dose ([3]; Table IX, single i.p. injection): 9 mg/kg; % T/C ([3]; Table IX, single i.p., at maximal effective dose): 150%
cis-bis-D-monosaccharato(DACH)Pt(II).3H2 O [Compound 8] | 2.8 µg/mL | – | 129% | 156% | 0.9 µg/mL | – | – | – | – | – | – | – | % T/C ([3]; single i.p., 12.5 mg/kg): 120%; % T/C ([3]; single i.p., 100 mg/kg): 151%; % T/C ([3]; single i.p., 200 mg/kg): Toxic; % T/C ([5]; 25 mg/kg, days 1,5,9): 206%; % T/C ([5]; 50 mg/kg, days 1,5,9): 225%; Long Term Survivors ([5]; 50 mg/kg, days 1,5,9): 1/6; DEATHS/TREATED ([4]; 100 mg/kg): 1/6; DEATHS/TREATED ([4]; 125 mg/kg): 1/6; DEATHS/TREATED ([4]; 158 mg/kg): 4/6; DEATHS/TREATED ([4]; 200 mg/kg): 3/6; DEATHS/TREATED ([4]; 250 mg/kg): 6/6; Calculated LD10 [4]: 115 mg/kg; Calculated LD50 [4]: 155 mg/kg; Calculated LD90 [4]: 220 mg/kg
N[C@@H]1CCCC[C@H]1N.O=C([O-])CN(CCO)CC(=O)[O-].[Pt+2] [Identifier No. 12a, mono-N--hydroxyethyliminodiacetato] | – | 1.8 µg/mL | – | – | – | 1.4 µg/mL | 2/6 | 6.25 mg/kg | 384% | 25 mg/kg | 265% | 4/6 | –
mono-N--benzyliminodiacetato [Identifier No. 15a] | – | 2.4 µg/mL | – | – | – | 1.0 µg/mL | 4/6 | 6.25 mg/kg | 620% | 12.5 mg/kg | 252% | 3/6 | –
NC(=O)CN(CC(=O)[O-])CC(=O)[O-].NC1CCCCC1N.[Pt+2] [Compound 42, N--(2-Acetamido)-iminodiacetato(DACH)Pt(II).1/2H2 O] | 0.7 µg/mL | 1.8 µg/mL | – | – | – | 3.0 µg/mL | – | – | – | – | – | – | –
